pIC50: −log10 of the molar value. Peptide text beside a SMILES is read from it. * marks the point of attachment. Cbz = O=C(OCc1ccccc1)*; CH2F = FC*
Assays:
[1] = test system: TNF-induced relocalisation of EYFP-TRADD (TNFR1-containing complex I) in HeLa cells; test: TNF-mediated relocation of fluorescently tagged TRADD in Clone #49-E2 HeLa cells, 384-well (Example 2); format: cell-based, human; details: for effect of downstream signalling inhibitors on detectable EYFP-TRADD clusters: increasing concentrations, in the presence of TNF, FIGS. 14-16; for selectivity: relocalisation of the reporter molecule EYFP-TRADD effected by other compounds or molecules: added instead of TNF, FIG. 12
Procedure: The following experimental procedure to detect the reporter molecule in the presence of absence of a “test” compound (or molecule, as described below) was conducted.
On day 1, 10^3 cells per well were plated in thin glass bottom 384 wells plate in 50 μl of culture media (DMEM glutamax, 10% FBS, peni-strep, geneticin, hygromycin). The cells were incubated overnight at 37° C. On day 2, media was aspirated, and 35 μl of warm DMEM, 2, 5% FBS, HEPES 10 mM added. Then, 15 μl of 4× the test compound diluted in DMEM, 2, 5% FBS, HEPES 10 mM was added to cells using a Biomek laboratory automation workstation (Beckman-Coulter). This was incubated at room temperature for 1.5 min. […] The cells were washed three times with PBS 1× using an Embla 384 Cell Washer (Molecular Devices). Cells were fixed by adding PBS 1×, 5% PFA+Hoescht 0.2 μg/ml using a Multidrop 384 dispensor (Thermo Scientific; 30 μl/well) followed by an incubation for 20 min at room temperature in the dark. After a further three washes of the cells with PBS 1× using the Embla 384 Cell Washer, 60 μl per well of PBS 1×, 1% peni-strep was added. The plate was covered with a transparent sealing film. Readings were then taken on the Scientific Cellomics ArrayScan HCS Reader automated microscope system as used in Example 1.

[2] = test system: TNF-mediated relocation of TRADD-EYFP in HeLa cells; test: TNF-mediated relocation of TRADD-EYFP / EYFP-TRADD in stably transfected HeLa cells (Example 1, clone HeLa/TRADD-EYFP#49); format: cell-based, human; details: for blocking of TNF-induced relocalisation of fluorescently tagged TRADD to punctuate structures: in the presence of TNF, R-7050 100 μM with 1000 ng/ml TNF (FIG. 6), etanercept FIG. 9
Excerpt: The pTREhyg-EYFP-TRADD and pTREhyg-TRADD-EYFP expression vectors were stably transfected using PolyFect® Transfection Reagent (Qiagen), according to the manufacturer's protocol, into HeLa Tet-On Cell Line cells (Clontech Laboratories, Inc.). This cell line is a neomycin resistant human cervical epithelioid carcinoma cell line transformed with a modified version of pTet-On which has a nuclear localization signal fused to the N-terminus (pUHD172-1neo).
Intracellular location of EYFP-TRADD and TRADD-EYFP was determined using fluorescence microscopy. Using a fluorescence microscope, cells are illuminated with light of a specific wavelength which is absorbed by the EYFP, causing it to emit longer wavelengths of light (of a different colour than the absorbed light). The illumination light is separated from the much weaker emitted fluorescence through the use of an emission filter, and an image of the cell created.
We then used an automated microscope system (a Thermo Scientific Cellomics ArrayScan HCS Reader) as an automated fluorescence microscopic imaging system designed for high content screening and high content analysis. The instrument features include optics by Carl Zeiss, broad white-light source, 12-bit cooled CCD camera, and controller software. The instrument is designed to work with image analysis modules (Thermo Scientific BioApplications) that automatically convert images into numeric data that capture changes in cell size, shape, intensity, and other properties. The system allows: high content screening, analysis of cells containing fluorescent reporter molecules in an array of locations, treating the cells in the array of locations with one or more test compounds, imaging numerous cells in each location with fluorescence optics, and converting the optical information into digital data. This digital data was then used to determine the positioning, distribution, environment or activity of the fluorescently labelled reporter molecules (EYFP-TRADD or TRADD-EYFP) in the transfected HeLa cells and the distribution of the cells. This information was analysed in terms of a positive, negative or null effect of each test compound being examined. This system allowed differences between untreated and treated cells to be measured, for example by counting the number of fluorescent spots (rather than diffuse fluorescence) in cells.
Using GraphPad Prism (v. 4.01, San Diego, Calif., USA), a dose-response curve was generated (FIG. 7). Percentage responders (y-axis values in FIGS. 7 and 8) were determined as the number of cells with more than five spots, which is an alternative but qualitatively similar measurement to spot count per cell (see below).

[3] = target: T1, TL1A-activated DR3 receptor (Homo sapiens, UniProt Q93038, P167L); test: TL1A-induced TRADD-EYFP relocation in HeLa TRADD DR3 recombinant cells (Example 3); format: cell-based; details: FIG. 17
T1 construct: (N); expressed in transfected cells; host or cells: HeLa Tet-On cells stably expressing TRADD-EYFP, transfected with pTRE2-DR3 (HeLa TRADD DR3)
T1 sequence (Q93038 with tags, fused parts or gaps P167L): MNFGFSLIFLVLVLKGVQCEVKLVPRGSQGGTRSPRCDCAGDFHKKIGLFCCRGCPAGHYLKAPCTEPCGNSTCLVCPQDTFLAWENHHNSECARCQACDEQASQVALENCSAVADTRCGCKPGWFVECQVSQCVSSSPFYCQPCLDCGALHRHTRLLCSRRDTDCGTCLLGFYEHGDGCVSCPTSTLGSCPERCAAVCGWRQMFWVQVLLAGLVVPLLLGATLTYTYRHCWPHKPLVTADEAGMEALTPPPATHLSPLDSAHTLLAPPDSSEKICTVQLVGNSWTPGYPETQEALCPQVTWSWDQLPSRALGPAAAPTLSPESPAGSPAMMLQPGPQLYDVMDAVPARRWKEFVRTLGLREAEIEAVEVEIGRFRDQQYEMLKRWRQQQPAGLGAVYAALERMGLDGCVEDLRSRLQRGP
Excerpt: (§1) In a further example of the present invention, a method involving the TL1A-activated DR3 receptor was developed. The TRADD-EYFP HeLa clones comprising the TRADD-EYFP reporter molecule transfected into HeLa cells as described in Example 1 was employed. The DR3 receptor (cDNA sequence shown in SEQ ID NO: 19 and encoded protein shown in SEQ ID NO: 20) which had been cloned in the vector pCR3.1 (Invitrogen) was transferred into the vector pTre2 (Clontech) using the Gateway® cloning technique with the primers Attb1 Forward primer (SEQ ID NO: 21) and Attb2 Reverse primer (SEQ ID NO: 22), yielding a pTRE2-DR3 expression vector (SEQ ID NO: 23). This expression vector was then transfected into the TRADD-EYFP HeLa clones to produce a double transformants designated HeLa TRADD DR3.
(§2) Monitoring and quantification of the TRADD-EYFP reporter molecule was conducted as described in Examples 1 and 2 above. […] The data of FIG. 17 are depicted graphically in FIG. 18.

[4] = test system: TNF-induced TRADD relocalisation in HeLa TRADD DR3 cells; test: TNF-induced TRADD-EYFP relocation in HeLa TRADD DR3 recombinant cells (Example 3); format: cell-based, human; details: in the presence of 100 ng/ml TNF; FIG. 19
Excerpt: as §1, §2

Compound: O=C(c1ccc(Nc2nccc(-c3cc4ccccc4s3)n2)cc1)N1CCC(N2CCCC2)CC1 [IKK16]
- effect of downstream signalling inhibitors on detectable EYFP-TRADD clusters [1]: no change in detectable EYFP-TRADD clusters

Compound: FC(F)(F)c1nnc2c(Sc3ccccc3)nc3ccc(Cl)cc3n12 [R-7050]
- blocking of TNF-induced relocalisation of fluorescently tagged TRADD to punctuate structures [2]: blocked
- pIC50 ([2]; on 1000 ng/ml TNF, FIG. 8): 5.68

Compound: CC[C@H](C)[C@H](NC(=O)OCc1ccccc1)C(=O)N[C@@H](CCC(=O)OC)C(=O)N[C@H](C(=O)N[C@@H](CC(=O)OC)C(=O)CF)[C@@H](C)O [Z-IETD-FMK] (Cbz-IE(OMe)TD(OMe)-CH2F)
- effect of downstream signalling inhibitors on detectable EYFP-TRADD clusters [1]: no dissociation of clusters

Compound: C=C1[C@@H](C)[C@H]2[C@H](Cc3ccccc3)NC(=O)[C@]23[C@H](OC(C)=O)/C=C/[C@@](C)(O)C(=O)[C@@H](C)C/C=C/[C@H]3[C@@H]1O [cytochalasin D]
- effect of downstream signalling inhibitors on detectable EYFP-TRADD clusters [1]: a reduction in detectable EYFP-TRADD clusters

Compound: IL1β: Recombinant Human IL1β from Peprotech, Cat N° 200-01B
- selectivity: relocalisation of the reporter molecule EYFP-TRADD effected by other compounds or molecules [1]: not effected

Compound: Polyinosinic-polycytidylic acid potassium salt [Poly I:C]
- selectivity: relocalisation of the reporter molecule EYFP-TRADD effected by other compounds or molecules [1]: not effected

Compound: TL1A: Recombinant Human TL1A/TNFSF15 from R&D Systems, Cat N° 1319-TL
- selectivity: relocalisation of the reporter molecule EYFP-TRADD effected by other compounds or molecules [1]: not effected
- calculated EC50 of TL1A (TRADD-EYFP relocalisation to spots) ([3]; HeLa TRADD DR3 cells): 0.0043 µg/mL

Compound: TRAIL: recombinant human TRAIL from Millipore, Cat N° GF092
- selectivity: relocalisation of the reporter molecule EYFP-TRADD effected by other compounds or molecules [1]: not effected

Compound: etanercept
- blocking of TNF-induced relocalisation of EYFP-TRADD ([1]; FIG. 13): blocks
- pIC50 ([2]; TNF dose=300 ng/ml, FIG. 9): 5.56
- blocking of TNF-induced relocalisation of fluorescently tagged TRADD to punctuate structures [2]: block
- dose-dependent inhibition of TL1A-induced relocalisation ([3]; in the presence of 300 ng/ml TL1A): not
- IC50 on TNF-induced relocalisation [4]: 0.0538 µg/mL
- dose-dependent inhibition of TNF-induced relocalisation [4]: dose-dependently inhibited

Reference: patent US20110319287A1, “MODULATOR ASSAY” (ADDEX PHARMA S.A., priority 2009, published 2011)
